pIC50: −log10 of the molar value.
Biological target: T1, horse spleen apoferritin (HSAF) (Equus caballus, UniProt P02791)
T1 sequence (P02791 2-175): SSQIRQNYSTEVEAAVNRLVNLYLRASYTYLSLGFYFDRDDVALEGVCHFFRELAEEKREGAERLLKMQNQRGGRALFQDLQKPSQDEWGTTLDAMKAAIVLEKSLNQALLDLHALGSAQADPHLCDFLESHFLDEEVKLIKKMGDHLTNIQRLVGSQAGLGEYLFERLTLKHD
Assay: 1-AMA fluorescence displacement
Type: binding

Row | Compound | pIC50
1 | CC(C)c1cccc(C2(C(F)(F)F)N=N2)c1F [compound 1, 3-(2-fluoro-3-isopropylphenyl)-3-(trifluoromethyl)-3H-diazirine] | 4.77
2 | CC(C)c1cccc(C(C)C)c1F [fropofol] | 4.96
